Test results as given in patent US4313956A, “Novel sypathomimetic amine prodrugs” (INTERx Research Corp., priority 1979, dated 1982).
Where “and” joins values, the source holds several entries; their conditions need not be identical. Equal entries are not always repeated.

Experiments:
[1] = tested on: psoriatic response; conditions: concentrations comparable to 3×10^-2 M; cited from earlier work
[2] = tested on: burn response of the right ear of female Sprague-Dawley rats; assay: Ear Burn Test (anti-inflammatory activity, ear burn model); assay type: in vivo; conditions: for mean (-x) of Δ %, % increase in thickness of the treated ear: group mean; for R ear (thickness of burned, treated ear) / Δ %, % increase in thickness of the treated ear: individual rats; for % inhibition of control response / % inhibition of control response (negative = inflammatory): 50 μl/burned ear, vehicle 90% acetone, 10% IPM, 16-18 hours; for % inhibition of control response (negative = inflammatory): 3 × 10^-2 M
Procedure: The anti-inflammatory activity of dipivalyloxymethylepinephrine (DDME), a novel prodrug according to this invention, was determined in an ear burn model vis-a-vis the known epinephrine prodrug, dipivalylepinephrine (DPE). Three different ear burn experiments were carried out, each experiment developing a comparison at two different drug dosages.
A controlled thermal challenge was administered to the right ear of female Sprague-Dawley rats, 40-60 g. […] Pressure applied during the 21 second burn administration was ca. 640 g/cm^2. Two groups, with and without application of vehicle (90% acetone, 10% isopropyl-myristate) served as controls. Vehicle with or without drug was applied to the right ear immediately after burning in the amount of […]. Rats were killed by cervical disclocation 16-18 hours after treatment and the thickness of each ear was determined with a micrometer (in inches ×10^3). Burn response values were normalized by expression of the % increase in thickness of the treated ear, i.e., [formula] The vehicle-treated control group was considered to be the maximum burn response within any given experiment. Inhibition or reversal of the burn response due to drug treatment is expressed as a percentage of the control response.

[3] = 0.00001 M, n = 8, control/vehicle 44.6%
[4] = 0.0001 M, n = 8, control/vehicle 44.6%
[5] = .00003 M, control/vehicle 40.2 ± 12.6
[6] = .0003 M, control/vehicle 40.2 ± 12.6
[7] = .003 M, control/vehicle 32.5 ± 8.9
[8] = .03 M, control/vehicle 32.5 ± 8.9

## CNCC(O)c1ccc(OC(=O)C(C)(C)C)c(OC(=O)C(C)(C)C)c1 (stereo not drawn) [DPE, dipivalylepinephrine]
[1]
  psoriatic response in clinical observations: a psoriatic response was often observed
[2]; [3]
  mean (-x) of Δ %, % increase in thickness of the treated ear: 33.3%
[2]; 0.00001 M
  R ear (thickness of burned, treated ear): 17.8 inches ×10^3 and 15.7 inches ×10^3 and 16.2 inches ×10^3 and 18.1 inches ×10^3 and 16.1 inches ×10^3 and 14.5 inches ×10^3 and 18.3 inches ×10^3
  Δ %, % increase in thickness of the treated ear: 41.3% and 26.6% and 24.6% and 29.8% and 46.0% and 26.8% and 25.0% and 46.4%
[2]; [4]
  mean (-x) of Δ %, % increase in thickness of the treated ear: 34.4%
[2]; 0.0001 M
  R ear (thickness of burned, treated ear): 15.9 inches ×10^3 and 17.3 inches ×10^3 and 17.4 inches ×10^3 and 18.3 inches ×10^3 and 16.6 inches ×10^3 and 15.8 inches ×10^3 and 16.4 inches ×10^3 and 17.2 inches ×10^3
  Δ %, % increase in thickness of the treated ear: 31.4% and 35.2% and 35.9% and 48.8% and 32.8% and 26.4% and 27.1% and 37.6%
[2]; 1 × 10^-4 M
  % inhibition of control response: 22.9%
[2]; 1 × 10^-5 M
  % inhibition of control response: 25.3%
[2]
  % inhibition of control response (negative = inflammatory): -21.5%
[2]; 3 × 10^-3 M
  % inhibition of control response: 8%
[2]; 3 × 10^-4 M
  % inhibition of control response: 31.3%
[2]; 3 × 10^-5 M
  % inhibition of control response: 19.7%
[2]; [5]
  mean (-x) of Δ %, % increase in thickness of the treated ear: 32.3 ± 5.2%
[2]; .00003 M
  R ear (thickness of burned, treated ear): 16.4 inches ×10^3 and 18.2 inches ×10^3 and 17.5 inches ×10^3 and 18.1 inches ×10^3 and 16.8 inches ×10^3 and 18.5 inches ×10^3 and 14.5 inches ×10^3 and 16.0 inches ×10^3
  Δ %, % increase in thickness of the treated ear: 29.1% and 32.8% and 31.6% and 40.3% and 36.6% and 37.0% and 22.9% and 30.1%
[2]; [6]
  mean (-x) of Δ %, % increase in thickness of the treated ear: 27.6 ± 6.9%
[2]; .0003 M
  R ear (thickness of burned, treated ear): 15.8 inches ×10^3 and 16.4 inches ×10^3 and 18.0 inches ×10^3 and 18.3 inches ×10^3 and 17.7 inches ×10^3 and 16.6 inches ×10^3 and 15.2 inches ×10^3 and 16.2 inches ×10^3
  Δ %, % increase in thickness of the treated ear: 27.4% and 26.2% and 27.7% and 35.6% and 34.1% and 12.6% and 29.6%
[2]; [7]
  mean (-x) of Δ %, % increase in thickness of the treated ear: 29.9 ± 10.8%
[2]; .003 M
  R ear (thickness of burned, treated ear): 18.6 inches ×10^3 and 19.6 inches ×10^3 and 19.8 inches ×10^3 and 16.7 inches ×10^3 and 16.5 inches ×10^3 and 17.1 inches ×10^3 and 13.4 inches ×10^3 and 17.2 inches ×10^3
  Δ %, % increase in thickness of the treated ear: 39.8% and 41.0% and 43.5% and 21.9% and 23.1% and 29.5% and 12.6% and 27.4%
[2]; [8]
  mean (-x) of Δ %, % increase in thickness of the treated ear: 39.5 ± 11.4%
[2]; .03 M
  R ear (thickness of burned, treated ear): 17.5 inches ×10^3 and 21.3 inches ×10^3 and 18.1 inches ×10^3 and 18.5 inches ×10^3 and 20.0 inches ×10^3 and 17.4 inches ×10^3 and 15.7 inches ×10^3 and 18.3 inches ×10^3
  Δ %, % increase in thickness of the treated ear: 32.6% and 56.6% and 43.7% and 37.0% and 52.7% and 28.9% and 23.6% and 40.8%

## CNCC(O)c1ccc(OCOC(=O)C(C)(C)C)c(OCOC(=O)C(C)(C)C)c1 (stereo not drawn) [DPME, dipivalyloxymethylepinephrine]
[2]; [3]
  mean (-x) of Δ %, % increase in thickness of the treated ear: 30.5%
[2]; 0.00001 M
  R ear (thickness of burned, treated ear): 16.3 inches ×10^3 and 16.5 inches ×10^3 and 13.8 inches ×10^3 and 14.1 inches ×10^3 and 17.0 inches ×10^3 and 14.7 inches ×10^3 and 17.8 inches ×10^3 and 16.8 inches ×10^3
  Δ %, % increase in thickness of the treated ear: 30.4% and 35.2% and 16.9% and 22.6% and 41.7% and 20.5% and 40.2% and 36.6%
[2]; [4]
  mean (-x) of Δ %, % increase in thickness of the treated ear: 23.0%
[2]; 0.0001 M
  R ear (thickness of burned, treated ear): 14.0 inches ×10^3 and 14.7 inches ×10^3 and 13.6 inches ×10^3 and 14.5 inches ×10^3 and 15.4 inches ×10^3 and 14.9 inches ×10^3 and 15.3 inches ×10^3
  Δ %, % increase in thickness of the treated ear: 18.6% and 23.5% and 12.4% and 21.8% and 31.6% and 22.5% and 26.3% and 27.5%
[2]; 1 × 10^-4 M
  % inhibition of control response: 48.4%
[2]; 1 × 10^-5 M
  % inhibition of control response: 31.6%
[2]
  % inhibition of control response (negative = inflammatory): -32.6%
[2]; 3 × 10^-3 M
  % inhibition of control response: 8%
[2]; 3 × 10^-4 M
  % inhibition of control response: 41.3%
[2]; 3 × 10^-5 M
  % inhibition of control response: 30.6%
[2]; [5]
  mean (-x) of Δ %, % increase in thickness of the treated ear: 27.9 ± 6.2%
[2]; .00003 M
  R ear (thickness of burned, treated ear): 15.3 inches ×10^3 and 17.8 inches ×10^3 and 16.6 inches ×10^3 and 16.3 inches ×10^3 and 15.5 inches ×10^3 and 15.4 inches ×10^3 and 16.9 inches ×10^3
  Δ %, % increase in thickness of the treated ear: 17.7% and 38.0% and 31.7% and 25.4% and 26.0% and 24.2% and 32.8% and 27.0%
[2]; [6]
  mean (-x) of Δ %, % increase in thickness of the treated ear: 23.6 ± 7.9%
[2]; .0003 M
  R ear (thickness of burned, treated ear): 17.7 inches ×10^3 and 16.4 inches ×10^3 and 18.0 inches ×10^3 and 17.5 inches ×10^3 and 15.2 inches ×10^3 and 15.5 inches ×10^3 and 15.0 inches ×10^3 and 14.8 inches ×10^3
  Δ %, % increase in thickness of the treated ear: 22.1% and 17.1% and 38.5% and 31.6% and 22.6% and 24.0% and 17.2% and 15.6%
[2]; [7]
  mean (-x) of Δ %, % increase in thickness of the treated ear: 29.9 ± 12.2%
[2]; .003 M
  R ear (thickness of burned, treated ear): 19.9 inches ×10^3 and 15.1 inches ×10^3 and 18.1 inches ×10^3 and 17.0 inches ×10^3 and 17.1 inches ×10^3 and 15.2 inches ×10^3 and 14.0 inches ×10^3 and 16.9 inches ×10^3
  Δ %, % increase in thickness of the treated ear: 45.3% and 21.8% and 42.5% and 26.9% and 41.3% and 17.8% and 12.9% and 31.0%
[2]; [8]
  mean (-x) of Δ %, % increase in thickness of the treated ear: 43.1 ± 12.4%
[2]; .03 M
  R ear (thickness of burned, treated ear): 18.4 inches ×10^3 and 16.9 inches ×10^3 and 20.7 inches ×10^3 and 18.2 inches ×10^3 and 19.3 inches ×10^3 and 20.9 inches ×10^3 and 19.0 inches ×10^3
  Δ %, % increase in thickness of the treated ear: 36.3% and 30.0% and 47.9% and 43.0% and 64.6% and 49.6%
[2]; low concentration levels
  anti-inflammatory effect compared with DPE: consistently elicits a greater anti-inflammatory effect than DPE
[2]; versus DPE, dose response profiles at low concentrations
  more effective as an anti-inflammatory agent from a dosage standpoint: 10-30 fold
